Data set [1] concerns the target T1, IKACh (acetylcholine-activated K+ current) (Rattus norvegicus, UniProt P48548+P63251).
T1 construct: endogenous in cells; host or cells: atrial myocytes dissociated from male Sprague-Dawley rats
T1 sequence (P63251 1-501): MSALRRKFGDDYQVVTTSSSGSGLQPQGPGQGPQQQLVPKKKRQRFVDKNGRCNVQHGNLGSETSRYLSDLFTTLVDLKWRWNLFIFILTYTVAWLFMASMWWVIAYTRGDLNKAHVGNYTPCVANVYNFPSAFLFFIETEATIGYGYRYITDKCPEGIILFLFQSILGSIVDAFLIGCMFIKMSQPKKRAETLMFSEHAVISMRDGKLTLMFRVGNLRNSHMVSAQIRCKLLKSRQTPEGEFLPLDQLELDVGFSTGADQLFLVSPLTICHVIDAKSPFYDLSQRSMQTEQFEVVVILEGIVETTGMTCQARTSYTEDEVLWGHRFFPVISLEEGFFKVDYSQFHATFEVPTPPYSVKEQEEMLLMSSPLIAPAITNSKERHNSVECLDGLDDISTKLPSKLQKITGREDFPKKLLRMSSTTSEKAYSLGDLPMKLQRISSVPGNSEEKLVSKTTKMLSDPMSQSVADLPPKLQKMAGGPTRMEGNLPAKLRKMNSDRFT
T1 sequence (P48548 1-419): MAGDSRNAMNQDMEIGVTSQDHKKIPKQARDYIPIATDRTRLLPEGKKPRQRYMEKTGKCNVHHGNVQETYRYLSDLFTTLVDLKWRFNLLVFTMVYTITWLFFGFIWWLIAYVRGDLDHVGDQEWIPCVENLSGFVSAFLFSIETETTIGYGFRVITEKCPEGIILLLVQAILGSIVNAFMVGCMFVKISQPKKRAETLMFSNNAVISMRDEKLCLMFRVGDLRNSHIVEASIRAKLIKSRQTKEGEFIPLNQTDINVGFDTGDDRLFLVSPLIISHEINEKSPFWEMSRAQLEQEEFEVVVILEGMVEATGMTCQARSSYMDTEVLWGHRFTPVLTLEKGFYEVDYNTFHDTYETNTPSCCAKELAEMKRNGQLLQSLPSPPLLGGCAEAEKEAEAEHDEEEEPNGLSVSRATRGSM
As to the kind of experiment: Whole-cell IKACh elicited by 5 μM carbachol in rat atrial myocytes. The class given is cell-based. The conditions noted are these: 10 μM, at −100 mV, carbachol sensitive current, n = 5. As to the method:
(§1) Whole-cell currents of hKv1.5 and hKv4.3 were recorded in established HEK 293 cell lines stably expressing hKv1.5 (KCN5A) and hKv4.3 (KCND3) and IKACh was determined in isolated rat atrial myocytes as described previously[12][31][32] and in Supplemental Materials. […]
Effects of acacetin prodrug on cardiac potassium currents […]
Cells on a coverslip were transferred to an open cell chamber (0.5 ml) mounted on the stage of an inverted microscope and superfused with Tyrode’s solution at 2 mL/min. The whole cell patch-clamp technique was used as described previously.1, 2 The whole-cell membrane currents were measured using an EPC-10 amplifier and Pulse software (Heka Elektronik, Lambrecht, Germany). Borosilicate glass electrodes (1.2-mm OD) were pulled with a Brown/Flaming puller (model P-97, Sutter Instrument, Nato, CA) and had resistances of 1.5~2.5 MΩ when filled with the pipette solution. A 3-M KCl agar bridge was used as the reference electrode. The tip potential was zeroed before the patch pipette contacted the cell. After a giga-Ohm seal was obtained, the cell membrane was ruptured by applying gentle pressure to establish a whole-cell configuration. […] The liquid junction potential (14.7 mV) calculated with the software Clampex was not corrected in the experiment and data […]
Whole-cell current of IKACh was determined in isolated rat atrial myocytes. […]

Data set [2] deals with T2, hERG channels (Homo sapiens, UniProt Q12809).
T2 construct: expressed in transfected cells; host or cells: HEK 293
T2 sequence (Q12809 whole entry): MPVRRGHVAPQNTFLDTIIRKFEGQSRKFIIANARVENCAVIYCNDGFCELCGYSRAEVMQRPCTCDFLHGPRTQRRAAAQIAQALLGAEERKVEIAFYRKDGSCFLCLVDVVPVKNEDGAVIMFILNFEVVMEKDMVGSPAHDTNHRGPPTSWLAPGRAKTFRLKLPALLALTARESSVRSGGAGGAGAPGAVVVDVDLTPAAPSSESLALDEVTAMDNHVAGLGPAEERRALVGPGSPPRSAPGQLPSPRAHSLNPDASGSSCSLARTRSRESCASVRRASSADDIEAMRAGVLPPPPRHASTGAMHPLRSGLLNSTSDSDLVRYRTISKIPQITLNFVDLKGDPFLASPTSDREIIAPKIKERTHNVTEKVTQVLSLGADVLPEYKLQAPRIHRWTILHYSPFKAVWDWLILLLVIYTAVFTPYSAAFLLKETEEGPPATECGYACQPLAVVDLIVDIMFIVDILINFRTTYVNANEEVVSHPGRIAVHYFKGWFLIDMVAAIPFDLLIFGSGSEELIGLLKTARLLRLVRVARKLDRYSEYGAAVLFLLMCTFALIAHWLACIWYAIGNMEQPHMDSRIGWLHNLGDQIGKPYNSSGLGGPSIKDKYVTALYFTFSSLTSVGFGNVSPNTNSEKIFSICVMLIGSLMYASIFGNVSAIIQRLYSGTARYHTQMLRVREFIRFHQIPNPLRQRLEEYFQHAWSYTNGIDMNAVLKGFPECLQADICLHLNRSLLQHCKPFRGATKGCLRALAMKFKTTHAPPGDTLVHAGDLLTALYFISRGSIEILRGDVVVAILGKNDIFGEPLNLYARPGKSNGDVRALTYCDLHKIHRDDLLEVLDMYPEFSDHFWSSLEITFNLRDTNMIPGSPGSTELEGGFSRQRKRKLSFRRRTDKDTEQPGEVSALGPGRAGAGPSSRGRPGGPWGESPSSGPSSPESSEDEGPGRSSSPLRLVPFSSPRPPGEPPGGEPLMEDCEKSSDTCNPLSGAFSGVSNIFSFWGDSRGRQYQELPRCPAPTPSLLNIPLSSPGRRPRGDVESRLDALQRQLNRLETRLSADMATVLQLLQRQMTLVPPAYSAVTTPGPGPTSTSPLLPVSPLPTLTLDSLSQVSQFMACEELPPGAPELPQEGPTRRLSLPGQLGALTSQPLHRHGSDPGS
Particulars: 30 μM; cited from earlier work.

The target of data set [3] is T3, hKv4.3 current (Ito, KCND3) (Homo sapiens, UniProt Q9UK17).
T3 construct: expressed in transfected cells
T3 sequence (Q9UK17 1-655): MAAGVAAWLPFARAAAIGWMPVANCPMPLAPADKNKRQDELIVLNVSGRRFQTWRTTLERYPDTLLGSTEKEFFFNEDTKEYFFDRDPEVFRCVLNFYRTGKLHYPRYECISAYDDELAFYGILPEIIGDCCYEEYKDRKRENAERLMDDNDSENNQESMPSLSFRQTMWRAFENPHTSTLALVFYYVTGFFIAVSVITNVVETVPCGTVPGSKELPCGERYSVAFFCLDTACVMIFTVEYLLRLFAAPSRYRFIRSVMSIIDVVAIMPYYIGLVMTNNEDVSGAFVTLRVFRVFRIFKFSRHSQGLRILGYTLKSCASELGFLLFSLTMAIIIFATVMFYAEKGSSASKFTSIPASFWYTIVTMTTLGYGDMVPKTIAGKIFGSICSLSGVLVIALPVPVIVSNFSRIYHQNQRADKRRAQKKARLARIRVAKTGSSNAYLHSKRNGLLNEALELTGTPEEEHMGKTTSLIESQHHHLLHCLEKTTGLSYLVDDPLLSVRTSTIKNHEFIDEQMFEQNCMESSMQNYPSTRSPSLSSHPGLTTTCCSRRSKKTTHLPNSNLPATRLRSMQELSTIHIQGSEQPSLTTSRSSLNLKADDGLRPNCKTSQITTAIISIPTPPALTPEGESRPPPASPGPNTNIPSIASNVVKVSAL
Nature of the data set: Whole-cell patch clamp of hKv4.3 current in HEK 293 cells. Particulars: 10 μM, at +50 mV, current peak, n = 5. The data set is classed as cell-based. On the procedure: as §1
(§2) Effects of acacetin prodrug on cardiac potassium currents
(§3) Whole-cell currents of hKv1.5 and hKv4.3 were recorded in established HEK 293 cell lines stably expressing hKv1.5 (KCN5A) and hKv4.3 (KCND3).1, 2 The cells were cultured in Dulbecco’s modified eagle’s medium (DMEM, Invitrogen, Hong Kong) supplemented with 10% fetal bovine serum and 400 µg/mL G418. Cells on a coverslip were transferred to an open cell chamber (0.5 ml) mounted on the stage of an inverted microscope and superfused with Tyrode’s solution at 2 mL/min. The whole cell patch-clamp technique was used as described previously.1, 2 The whole-cell membrane currents were measured using an EPC-10 amplifier and Pulse software (Heka Elektronik, Lambrecht, Germany). Borosilicate glass electrodes (1.2-mm OD) were pulled with a Brown/Flaming puller (model P-97, Sutter Instrument, Nato, CA) and had resistances of 1.5~2.5 MΩ when filled with the pipette solution. A 3-M KCl agar bridge was used as the reference electrode. The tip potential was zeroed before the patch pipette contacted the cell. […]

Data set [4] is described as follows: Aqueous solubility by HPLC in H2O, 5% glucose and 0.9% NaCl. The class given is physicochemical.
Data set [5] has as its target T4, hKv1.5 current (IKur, KCN5A) (Homo sapiens, UniProt P22460).
T4 construct: expressed in transfected cells
Nature of the data set: Whole-cell patch clamp of hKv1.5 current in HEK 293 cells. The conditions noted are these: 10 μM, at +50 mV, current at end of the voltage step, n = 5. The class given is cell-based. On the procedure:
as §1, §2, §3

Molecules are shown by their SMILES. ≈ marks a conversion by molar mass, not a printed value. Like-named read-outs stand apart in the source and are kept apart here.

T4 sequence (P22460 whole entry): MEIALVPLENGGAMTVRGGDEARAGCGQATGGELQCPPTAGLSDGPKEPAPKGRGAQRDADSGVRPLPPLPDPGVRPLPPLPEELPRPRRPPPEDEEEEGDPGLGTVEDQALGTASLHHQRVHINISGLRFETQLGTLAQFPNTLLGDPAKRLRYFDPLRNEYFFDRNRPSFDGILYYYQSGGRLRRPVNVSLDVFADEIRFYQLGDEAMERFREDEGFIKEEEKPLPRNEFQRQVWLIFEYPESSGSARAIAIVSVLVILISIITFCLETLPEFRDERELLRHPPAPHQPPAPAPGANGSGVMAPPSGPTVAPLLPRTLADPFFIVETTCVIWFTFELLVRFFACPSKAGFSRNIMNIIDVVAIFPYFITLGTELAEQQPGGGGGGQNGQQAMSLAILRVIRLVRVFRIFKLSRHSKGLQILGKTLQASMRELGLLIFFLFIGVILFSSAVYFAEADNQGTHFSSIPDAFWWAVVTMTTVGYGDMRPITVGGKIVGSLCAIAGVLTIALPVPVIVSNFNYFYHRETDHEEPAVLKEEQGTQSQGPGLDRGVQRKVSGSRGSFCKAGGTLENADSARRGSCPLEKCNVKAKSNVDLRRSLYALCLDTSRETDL

In the case of `COc1ccc(-c2cc(=O)c3c(O)cc(O)cc3o2)cc1` [acacetin], the “decrease of IK.ACh” value in data set [1] was determined as 66.5 ± 3.1%. The “inhibition of hERG current” value in data set [2] was ~ 50%. For the same compound, the “decrease of hKv4.3 current” value in data set [3] came out at 69.3 ± 5.1%. In addition, the solubility in data set [4] was determined as 0.195 ± 0.0135 µg/mL (≈ 0.686 µM); in data set [4] (24 °C, saline or isotonic) it was 0.312 ± 0.0121 µg/mL (≈ 1.1 µM); in data set [4] (24 °C, water) it was 0.0644 ± 0.0109 µg/mL (≈ 0.227 µM). Besides, in data set [5], the “decrease of hKv1.5 current” value is 79.7 ± 4.1%.

As to `COc1ccc(-c2cc(=O)c3c(O)cc(OP(=O)(O)O)cc3o2)cc1` [phosphate ester of acacetin], the solubility in data set [4] (24 °C, saline or isotonic, in 0.9% NaCl, room temperature (23–25 °C), n = 3, read-out: maximum solubility) was found to be 4.3 ± 0.1 µg/mL; in data set [4] (24 °C, saline or isotonic, in 5% glucose, room temperature (23–25 °C), n = 3, read-out: maximum solubility), 2.7 ± 0.1 µg/mL; in data set [4] (24 °C, water, in H2O, room temperature (23–25 °C), n = 3, read-out: maximum solubility), 2.5 ± 0.1 µg/mL. For the same compound, the “increase of aqueous solubility vs acacetin” value in data set [4] (in 0.9% NaCl) came out at 21 folds; in data set [4] (in 5% glucose), 7.6 folds; in data set [4] (in H2O), 37.8 folds.

The values are drawn from article PMC4861903, “Synthesis of a highly water-soluble acacetin prodrug for treating experimental atrial fibrillation in beagle dogs” (Scientific Reports, 2016).
